Experimental data published in patent publication US20170368176A1 (priority 2014, published 2017).
Where “and” joins values, the source holds several entries; their conditions need not be identical. Equal entries are not always repeated. Entries after “also recorded” stand apart in the source; their conditions may differ. Structures can show the parent of a compound that is named as a salt. Where two headings read alike, the source gives them in different places.

Tests used:
rat cornea = system: rat cornea; design: species or system Sprague-Dawley rats; settings: in vivo
α2-AR = settings: cited from earlier work
peripheral nerve = settings: in vivo; cited from earlier work
[1] = in vivo; cited from earlier work
rats [2] = settings: rat, in vivo; cited from earlier work
[3] = system: human corneal limbal epithelial (HCLE) cells
rats [4] = settings: rat, in vivo
[5] = in vivo; cited from earlier work; remark: listed apart in the source

Clc1cccc(Cl)c1N=C1NCCN1 [CLON, clonidine hydrochloride]
effect of the added agent on the duration of corneal block from TTX (in words) (rat cornea): failed to prolong corneal block | selectivity for the α2-AR, times less selective than dexmedetomidine (α2-AR): 8 times | effective concentrations in peripheral nerve (peripheral nerve): 10 µM

Cc1cccc([C@H](C)c2cnc[nH]2)c1C [DMED, (S)-4-[1-(2,3-Dimethylphenyl)ethyl]-3H-imidazole]
half-life [1]: approximately 2 hours | perineural doses that produce undesired sedation (rats [2]): above 6 μg/kg | HCLE cell survival compared to cells not exposed to drug [3]: not reduced | Block0.5 (duration without blink response to 0.5 cm filament) (rat cornea): 0 ± 0 min | Block2 (duration without blink response to 2 cm filament) (rat cornea): 0 ± 0 min | Block<6 (duration without blink response to any filament less than 6 cm) (rat cornea): 0 ± 0 min | corneal anesthesia (in words) (rat cornea): did not produce any degree of corneal anesthesia | effect of increasing doses of DMED on block (FIG. 4) (rat cornea): do not increase block further | sedation, dose response of DMED (FIG. 4) (rats [4]): sedation results from the higher two doses | effective concentrations in peripheral nerve (peripheral nerve): 2.7 µM

CCCOc1ccc(C(=O)OCCN(CC)CC)cc1N [PPC, Proparacaine hydrochloride]
animals in which block0.5 occurred (rat cornea): all animals | Block0.5 (duration without blink response to 0.5 cm filament) (rat cornea; hydrochloride): 18 ± 6 min | Block2 (duration without blink response to 2 cm filament) (rat cornea; hydrochloride): 35 min and 35 ± 10 min | Block<6 (duration without blink response to any filament less than 6 cm) (rat cornea; hydrochloride): 54 min and 54 ± 8 min

CC[N+](CC)(CC)CC(=O)Nc1c(C)cccc1C.[Br-] [QX-314]
duration of local anesthesia [5]: approximately 24 h

N=C1N[C@@H](O)[C@H]2[C@@H]3OC4(O)OC(C(O)[C@@]2(N1)[C@@H]4O)[C@]3(O)CO (stereo partly drawn) [TTX, Tetrodotoxin]
Block0.5 duration of corneal block (rat cornea): 12 ± 12.5 min | Block2 duration of corneal block (rat cornea): 39 ± 22.7 min | Block < 6 duration of corneal block (rat cornea): 117 ± 19.5 min | animals in which block0.5 of any duration occurred (rat cornea): 5 of 14 | block<6 durations compared with 15 mM proparacaine (rat cornea): comparable to those from 15 mM proparacaine

CCN(c1ccccc1)c1cc(NC)[n+](C)c(C)n1.[Cl-] [ZD7288, 4-(N-Ethyl-N-phenylamino)-1,2 dimethyl-6-(methylamino) pyrimidinium chloride]
effect of the added agent on the duration of corneal block from TTX (in words) (rat cornea): prolongs the duration of corneal block from TTX

CNC[C@H](O)c1ccc(O)c(O)c1 [epinephrine]
effect of the added agent on the duration of corneal block from TTX (in words) (rat cornea): failed to prolong corneal block

CNC[C@H](O)c1cccc(O)c1 [phenylephrine]
effect of the added agent on the duration of corneal block from TTX (in words) (rat cornea): at low concentrations (but not high concentrations) prolonged the duration of corneal block from TTX; also recorded: greatly prolonged the duration of corneal block by TTX

COc1cc2nc(N3CCN(C(=O)c4ccco4)CC3)nc(N)c2cc1OC [prazosin]
effect of the added agent on the duration of corneal block from TTX (in words) (rat cornea): did not shorten the duration of corneal block from TTX
